Columns and labels:
[1] = target: Cyclin-dependent kinase 16 (Homo sapiens) (UniProt Q00536); assay: Selectivity interaction (KinomeScan (DiscoverX)) EUB0000229b CDK16; details: at 10 µM
[2] = target: Serine/threonine-protein kinase PAK 6 (Homo sapiens) (UniProt Q9NQU5); assay: Selectivity interaction (KinomeScan (DiscoverX)) EUB0000229b PAK6; details: at 10 µM
[3] = target: Calcium/calmodulin-dependent protein kinase type II subunit beta (Homo sapiens) (UniProt Q13554); assay: Selectivity interaction (Kinase panel (DSF assay)) EUB0001559a CAMK2B
[4] = target: T1, Beta-adrenergic receptor kinase 1 (Homo sapiens) (UniProt P25098); assay: Selectivity interaction (KinomeScan (DiscoverX)) EUB0000695a ADRBK1; details: at 100 nM
T1 sequence (whole entry): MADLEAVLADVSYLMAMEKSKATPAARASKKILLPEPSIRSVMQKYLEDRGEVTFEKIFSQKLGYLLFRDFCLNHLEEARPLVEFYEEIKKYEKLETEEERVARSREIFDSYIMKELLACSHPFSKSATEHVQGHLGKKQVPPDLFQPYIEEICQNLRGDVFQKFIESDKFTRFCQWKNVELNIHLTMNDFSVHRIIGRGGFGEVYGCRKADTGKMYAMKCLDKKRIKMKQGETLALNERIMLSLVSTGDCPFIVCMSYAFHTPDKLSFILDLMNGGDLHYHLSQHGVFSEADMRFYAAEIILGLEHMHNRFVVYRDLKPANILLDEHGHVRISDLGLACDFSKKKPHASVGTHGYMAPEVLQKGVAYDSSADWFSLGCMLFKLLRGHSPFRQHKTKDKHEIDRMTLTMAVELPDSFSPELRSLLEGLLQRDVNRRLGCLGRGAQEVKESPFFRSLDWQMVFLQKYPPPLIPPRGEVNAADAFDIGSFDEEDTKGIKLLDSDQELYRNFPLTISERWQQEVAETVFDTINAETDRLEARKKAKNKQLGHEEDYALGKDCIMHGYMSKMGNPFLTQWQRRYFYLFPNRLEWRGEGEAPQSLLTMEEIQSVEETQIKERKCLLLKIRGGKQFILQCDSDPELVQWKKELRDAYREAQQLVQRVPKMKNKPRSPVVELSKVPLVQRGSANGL

[5] = target: CDK9/cyclin T1 (Homo sapiens) (UniProt O60563+P50750); assay: Selectivity interaction (Adapta Assay) EUB0001632a CDK9; assay type: protein-complex assay; details: at 10 µM
[6] = target: Histone acetyltransferase p300 (Homo sapiens) (UniProt Q09472); assay: Selectivity interaction (Transferase panel (protein, RNA, and DNA methyltransferases. and EP300 (acetyltransferase))) EUB0000270b EP300
[7] = test system: Tyrosine-protein kinase ABL1 (Homo sapiens), P00519 [T315I]; details: at 10 µM
[8] = target: Serine/threonine-protein kinase OSR1 (Homo sapiens) (UniProt O95747); assay: Selectivity interaction (KinomeScan (DiscoverX)) EUB0001049a OXSR1; details: at 1 µM
[9] = target: T2, MAP/microtubule affinity-regulating kinase 4 (Homo sapiens) (UniProt Q96L34); assay: Selectivity interaction (KinomeScan (DiscoverX)) EUB0001619a MARK4; details: at 1 µM
T2 sequence (whole entry): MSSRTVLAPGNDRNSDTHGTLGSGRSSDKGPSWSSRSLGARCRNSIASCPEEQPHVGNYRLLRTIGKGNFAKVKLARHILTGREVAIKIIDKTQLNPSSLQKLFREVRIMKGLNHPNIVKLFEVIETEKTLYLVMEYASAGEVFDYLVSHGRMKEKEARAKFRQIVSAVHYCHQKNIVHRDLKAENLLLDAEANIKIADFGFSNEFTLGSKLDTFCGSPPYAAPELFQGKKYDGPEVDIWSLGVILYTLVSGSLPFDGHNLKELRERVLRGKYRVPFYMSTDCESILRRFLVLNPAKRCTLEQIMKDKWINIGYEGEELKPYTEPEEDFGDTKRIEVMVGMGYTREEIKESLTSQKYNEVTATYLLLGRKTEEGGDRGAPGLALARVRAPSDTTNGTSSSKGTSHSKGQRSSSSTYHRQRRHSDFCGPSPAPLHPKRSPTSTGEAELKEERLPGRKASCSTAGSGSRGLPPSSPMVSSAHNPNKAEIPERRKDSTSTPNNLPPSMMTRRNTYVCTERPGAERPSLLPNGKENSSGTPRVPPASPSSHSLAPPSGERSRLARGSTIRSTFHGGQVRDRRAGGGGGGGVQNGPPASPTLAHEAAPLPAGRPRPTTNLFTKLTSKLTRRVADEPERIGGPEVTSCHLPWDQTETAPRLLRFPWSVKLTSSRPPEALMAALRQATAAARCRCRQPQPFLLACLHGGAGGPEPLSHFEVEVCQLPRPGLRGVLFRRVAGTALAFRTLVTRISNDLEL

[10] = target: Serine/threonine-protein kinase pim-3 (Homo sapiens) (UniProt Q86V86); assay: Selectivity interaction (Kinase panel (literature)) EUB0001199aCl PIM3; details: at 1 µM
[11] = target: Macrophage-stimulating protein receptor (Homo sapiens, UniProt Q04912); assay: Selectivity interaction (KinomeScan (DiscoverX)) EUB0000607a MST1R; details: at 10 µM
[12] = target: Serine/threonine-protein kinase Nek6 (Homo sapiens) (UniProt Q9HC98); assay: Selectivity interaction (KinomeScan (DiscoverX)) EUB0000618a NEK6; details: at 10 µM
Aurora kinase B = Aurora kinase B (Homo sapiens, UniProt Q96GD4); assay: Selectivity interaction (ActivX KiNativ screen (kinase selectivity in THP-1 cell lysates)) EUB0000639a AURKB; assay type: subcellular; details: lysate, at 0.2 µM
[13] = target: T3, Serine/threonine-protein kinase Nek2 (Homo sapiens) (UniProt P51955); assay: Selectivity interaction (Ambit KINOMEscan and KiNATiv profiling in Jurkat cells) EUB0000090b NEK2; assay type: cell-based; details: at 1 µM
T3 sequence (whole entry): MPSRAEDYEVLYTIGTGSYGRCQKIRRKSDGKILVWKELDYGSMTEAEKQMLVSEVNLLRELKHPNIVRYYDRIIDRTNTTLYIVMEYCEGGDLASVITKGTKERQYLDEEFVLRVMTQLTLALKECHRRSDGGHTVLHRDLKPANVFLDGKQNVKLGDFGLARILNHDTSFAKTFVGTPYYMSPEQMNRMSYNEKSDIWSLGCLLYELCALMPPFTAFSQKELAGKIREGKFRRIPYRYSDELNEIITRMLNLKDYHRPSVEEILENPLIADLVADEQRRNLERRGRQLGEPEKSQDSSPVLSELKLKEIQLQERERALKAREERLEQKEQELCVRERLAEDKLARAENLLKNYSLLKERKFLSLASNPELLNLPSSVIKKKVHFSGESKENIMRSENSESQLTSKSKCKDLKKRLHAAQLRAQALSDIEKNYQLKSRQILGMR

Sequence of Histone acetyltransferase p300 (Homo sapiens) (Q09472 whole entry): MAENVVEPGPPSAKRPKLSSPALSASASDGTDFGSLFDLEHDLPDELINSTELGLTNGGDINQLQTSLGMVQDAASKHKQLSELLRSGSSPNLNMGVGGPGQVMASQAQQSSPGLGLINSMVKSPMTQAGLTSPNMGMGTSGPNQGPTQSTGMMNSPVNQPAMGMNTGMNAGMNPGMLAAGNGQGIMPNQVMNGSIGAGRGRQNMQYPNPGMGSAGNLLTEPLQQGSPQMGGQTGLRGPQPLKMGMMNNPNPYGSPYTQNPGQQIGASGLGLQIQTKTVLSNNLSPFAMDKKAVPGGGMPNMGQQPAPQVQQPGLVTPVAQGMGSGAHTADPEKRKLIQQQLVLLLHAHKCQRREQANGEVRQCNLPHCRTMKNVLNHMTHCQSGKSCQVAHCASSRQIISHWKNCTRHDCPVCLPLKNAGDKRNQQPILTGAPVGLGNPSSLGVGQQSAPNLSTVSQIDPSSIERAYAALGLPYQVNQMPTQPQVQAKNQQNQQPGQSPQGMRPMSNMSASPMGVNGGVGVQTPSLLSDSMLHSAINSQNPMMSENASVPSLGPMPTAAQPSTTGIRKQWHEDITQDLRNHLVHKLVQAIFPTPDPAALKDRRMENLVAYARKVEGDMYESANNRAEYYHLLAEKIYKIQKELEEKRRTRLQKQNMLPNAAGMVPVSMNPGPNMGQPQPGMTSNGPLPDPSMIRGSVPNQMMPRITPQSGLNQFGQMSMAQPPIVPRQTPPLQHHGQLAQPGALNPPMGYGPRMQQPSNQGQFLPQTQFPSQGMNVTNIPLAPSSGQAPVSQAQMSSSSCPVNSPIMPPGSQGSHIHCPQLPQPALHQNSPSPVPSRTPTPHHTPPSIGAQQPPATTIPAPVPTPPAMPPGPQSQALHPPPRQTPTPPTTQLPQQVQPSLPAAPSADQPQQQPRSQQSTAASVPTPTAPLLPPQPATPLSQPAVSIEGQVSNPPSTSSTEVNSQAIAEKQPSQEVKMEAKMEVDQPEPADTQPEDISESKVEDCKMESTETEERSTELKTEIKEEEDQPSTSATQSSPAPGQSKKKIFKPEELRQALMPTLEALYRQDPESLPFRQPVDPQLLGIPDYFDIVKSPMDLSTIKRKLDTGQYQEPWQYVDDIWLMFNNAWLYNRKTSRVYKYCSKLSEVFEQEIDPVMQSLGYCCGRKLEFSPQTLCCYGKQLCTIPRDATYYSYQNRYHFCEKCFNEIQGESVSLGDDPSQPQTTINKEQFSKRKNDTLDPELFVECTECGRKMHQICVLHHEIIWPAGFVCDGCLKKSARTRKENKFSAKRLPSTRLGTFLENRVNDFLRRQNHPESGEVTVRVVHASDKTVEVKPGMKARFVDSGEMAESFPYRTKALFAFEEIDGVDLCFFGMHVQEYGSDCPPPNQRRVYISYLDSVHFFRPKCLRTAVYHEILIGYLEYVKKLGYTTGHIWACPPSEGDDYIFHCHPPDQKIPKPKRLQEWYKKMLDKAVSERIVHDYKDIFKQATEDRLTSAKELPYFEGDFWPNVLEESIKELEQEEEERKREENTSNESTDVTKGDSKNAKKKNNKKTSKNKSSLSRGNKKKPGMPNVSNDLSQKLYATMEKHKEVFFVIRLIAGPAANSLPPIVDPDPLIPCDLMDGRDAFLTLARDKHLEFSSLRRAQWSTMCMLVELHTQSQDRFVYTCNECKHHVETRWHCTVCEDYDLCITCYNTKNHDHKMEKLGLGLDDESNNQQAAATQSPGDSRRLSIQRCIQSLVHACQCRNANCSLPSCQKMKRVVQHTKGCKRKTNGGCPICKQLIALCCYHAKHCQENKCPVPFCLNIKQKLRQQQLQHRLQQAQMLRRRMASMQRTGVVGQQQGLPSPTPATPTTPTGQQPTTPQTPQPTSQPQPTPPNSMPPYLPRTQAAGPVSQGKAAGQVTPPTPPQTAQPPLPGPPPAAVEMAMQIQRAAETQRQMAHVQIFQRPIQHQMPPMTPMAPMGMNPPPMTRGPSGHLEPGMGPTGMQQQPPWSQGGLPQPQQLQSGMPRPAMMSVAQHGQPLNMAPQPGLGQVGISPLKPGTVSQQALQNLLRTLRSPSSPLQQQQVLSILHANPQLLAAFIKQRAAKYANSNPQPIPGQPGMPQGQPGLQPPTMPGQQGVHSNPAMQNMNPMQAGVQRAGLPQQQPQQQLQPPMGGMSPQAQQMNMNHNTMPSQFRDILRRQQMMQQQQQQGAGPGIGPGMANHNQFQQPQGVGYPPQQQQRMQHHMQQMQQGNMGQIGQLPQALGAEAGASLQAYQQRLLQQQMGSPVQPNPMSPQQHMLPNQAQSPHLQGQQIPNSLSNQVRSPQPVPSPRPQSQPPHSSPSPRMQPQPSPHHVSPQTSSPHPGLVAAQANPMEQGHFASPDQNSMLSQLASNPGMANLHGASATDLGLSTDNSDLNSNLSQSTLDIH
Sequence of Macrophage-stimulating protein receptor (Q04912 25-304 limits assumed): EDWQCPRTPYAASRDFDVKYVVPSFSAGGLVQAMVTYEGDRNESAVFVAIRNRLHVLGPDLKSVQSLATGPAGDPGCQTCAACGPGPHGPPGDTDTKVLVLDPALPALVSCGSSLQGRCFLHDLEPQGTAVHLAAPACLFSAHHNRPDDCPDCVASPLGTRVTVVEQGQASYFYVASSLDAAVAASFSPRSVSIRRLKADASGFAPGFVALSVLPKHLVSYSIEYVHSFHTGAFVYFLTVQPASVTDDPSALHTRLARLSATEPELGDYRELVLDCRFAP
Sequence of Macrophage-stimulating protein receptor (Q04912 310-1400 limits assumed): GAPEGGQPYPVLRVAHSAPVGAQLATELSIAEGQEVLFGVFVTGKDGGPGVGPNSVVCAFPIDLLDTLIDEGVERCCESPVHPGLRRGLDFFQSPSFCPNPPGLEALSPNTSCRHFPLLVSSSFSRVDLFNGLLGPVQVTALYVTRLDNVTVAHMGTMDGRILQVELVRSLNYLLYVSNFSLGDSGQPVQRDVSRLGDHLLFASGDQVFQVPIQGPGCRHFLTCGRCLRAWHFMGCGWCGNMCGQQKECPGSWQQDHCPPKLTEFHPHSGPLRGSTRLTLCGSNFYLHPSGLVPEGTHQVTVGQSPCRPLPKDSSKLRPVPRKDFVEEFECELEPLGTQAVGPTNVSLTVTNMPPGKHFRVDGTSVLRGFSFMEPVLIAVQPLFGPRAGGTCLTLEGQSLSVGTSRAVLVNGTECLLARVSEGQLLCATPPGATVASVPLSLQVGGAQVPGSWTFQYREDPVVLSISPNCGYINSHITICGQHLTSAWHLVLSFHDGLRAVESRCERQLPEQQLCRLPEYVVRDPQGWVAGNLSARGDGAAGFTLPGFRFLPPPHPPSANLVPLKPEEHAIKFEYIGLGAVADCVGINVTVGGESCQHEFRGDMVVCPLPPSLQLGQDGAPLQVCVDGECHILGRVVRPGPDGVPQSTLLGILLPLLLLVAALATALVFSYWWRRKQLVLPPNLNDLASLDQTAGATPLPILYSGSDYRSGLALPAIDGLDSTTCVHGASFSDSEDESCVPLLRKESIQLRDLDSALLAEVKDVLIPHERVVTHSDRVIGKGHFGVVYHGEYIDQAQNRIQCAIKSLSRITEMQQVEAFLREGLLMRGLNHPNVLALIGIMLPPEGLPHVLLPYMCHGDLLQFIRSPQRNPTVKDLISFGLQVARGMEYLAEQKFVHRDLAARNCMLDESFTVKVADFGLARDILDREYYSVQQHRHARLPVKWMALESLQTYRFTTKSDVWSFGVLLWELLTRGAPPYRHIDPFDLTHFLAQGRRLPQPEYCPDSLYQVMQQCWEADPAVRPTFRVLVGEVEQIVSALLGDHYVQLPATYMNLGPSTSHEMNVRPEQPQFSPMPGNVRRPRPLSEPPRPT
Sequence of Cyclin-dependent kinase 16 (Homo sapiens) (Q00536 whole entry): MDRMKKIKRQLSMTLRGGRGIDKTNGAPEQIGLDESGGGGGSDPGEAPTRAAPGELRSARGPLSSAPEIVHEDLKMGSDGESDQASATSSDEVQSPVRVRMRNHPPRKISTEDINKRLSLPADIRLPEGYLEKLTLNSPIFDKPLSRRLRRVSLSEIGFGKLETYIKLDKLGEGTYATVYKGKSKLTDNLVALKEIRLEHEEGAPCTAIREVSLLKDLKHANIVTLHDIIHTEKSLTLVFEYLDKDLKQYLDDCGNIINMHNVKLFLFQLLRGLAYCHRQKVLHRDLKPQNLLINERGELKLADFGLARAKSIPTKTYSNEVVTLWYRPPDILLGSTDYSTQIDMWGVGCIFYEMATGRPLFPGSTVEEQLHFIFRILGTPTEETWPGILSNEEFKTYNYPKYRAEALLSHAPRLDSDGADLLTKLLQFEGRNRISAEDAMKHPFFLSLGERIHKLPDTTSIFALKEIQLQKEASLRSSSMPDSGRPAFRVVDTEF
Sequence of Aurora kinase B (Q96GD4 whole entry): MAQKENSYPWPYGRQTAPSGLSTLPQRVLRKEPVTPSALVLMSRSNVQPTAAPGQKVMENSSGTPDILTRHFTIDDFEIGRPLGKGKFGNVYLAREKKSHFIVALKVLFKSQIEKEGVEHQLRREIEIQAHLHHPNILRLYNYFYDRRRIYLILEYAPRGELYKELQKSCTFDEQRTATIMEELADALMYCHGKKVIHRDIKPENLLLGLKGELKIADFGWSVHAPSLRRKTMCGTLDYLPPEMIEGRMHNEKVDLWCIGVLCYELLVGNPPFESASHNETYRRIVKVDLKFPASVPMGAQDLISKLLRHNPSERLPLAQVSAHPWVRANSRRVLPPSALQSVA

## COc1cc(N(C)c2ccnc3ccc(C(F)(F)F)cc23)cc(OC)c1OC
[1]
  % binding: 85%
[2]
  % binding: 91%

## CN(C(=O)c1cnn2cccnc12)c1cc2c(cc1N1CCOCC1)C(=O)N(C[C@@H](F)C(C)(C)O)C2
[3]
  dTM: 0 K

## Cc1cc(F)c(C(=O)Nc2cccc(-c3nncn3C(C)C)n2)cc1-n1cnc(C2CC2)c1
[4]
  % of control: 70%

## Cn1cc(-n2cnc3c(NCc4nc5cc(Cl)c(Cl)cc5[nH]4)nc(N4CCOCC4)nc32)cn1
[5]
  % of inhibition: 63.9%

## Cc1cc(CN)cc(C)c1-c1ncn(C)c1-c1cncn1C
[6]; at 1 µM
  % activity: > 90%
[6]; at 10 µM
  % activity: > 80%

## Cc1cc([C@@H](C)Nc2ccccc2C(=O)O)c2nc(N3CCOCC3)cc(=O)n2c1 [AZD-6482]
[7]
  % of control: 70%

## COc1cc(Nc2nc(C)cc(-c3cnn4nc(OC)ccc34)n2)cc(C(F)(F)F)c1
[8]
  % of control: 83%

## N#Cc1cccc(-c2c[nH]c3ncnc(N4CCOCC4)c23)c1
[9]
  % of control: 82%

## CN1Cc2nccc(-c3cn(C)nc3-c3ccc(F)cc3)c2C1=O
[10]
  % of inhibition: 1%

## CNC(=O)Nc1ccc(-c2nc(N3CC4CCC(C3)O4)c3cnn(C4CCC5(CC4)OCCO5)c3n2)cc1
[11]
  % of control: 100%

## O[C@H]1CC[C@H](Nc2ncc3nc(Nc4c(F)cc(F)cc4F)n([C@H]4CCOC4)c3n2)CC1
[12]
  % of control: 100%

## CC[C@@H]1[C@H](F)C(=O)N[C@@H]1COc1nccc2cc(C(N)=O)c(OC)cc12 [ZIMLOVISERTIB]
Aurora kinase B
  % of inhibition: -1%

## CN(C)C/C=C/C(=O)Nc1ccc(C(=O)N2CCCC(Nc3ncc(Cl)c(-c4c[nH]c5ccccc45)n3)C2)cc1 (stereo not given)
[13]
  % of control: 97%
